In ChEMBL document CHEMBL1156403, “A new dimeric dihydrochalcone and a new prenylated flavone from the bud covers of Artocarpus altilis: potent inhibitors of cathepsin K” (J Nat Prod, 2002):
pIC50: −log10 of the molar value.

target: T1, Cathepsin K (Homo sapiens, UniProt P43235); test: Inhibition of cathepsin K by fluorimetric assay
T1 sequence (P43235 whole entry): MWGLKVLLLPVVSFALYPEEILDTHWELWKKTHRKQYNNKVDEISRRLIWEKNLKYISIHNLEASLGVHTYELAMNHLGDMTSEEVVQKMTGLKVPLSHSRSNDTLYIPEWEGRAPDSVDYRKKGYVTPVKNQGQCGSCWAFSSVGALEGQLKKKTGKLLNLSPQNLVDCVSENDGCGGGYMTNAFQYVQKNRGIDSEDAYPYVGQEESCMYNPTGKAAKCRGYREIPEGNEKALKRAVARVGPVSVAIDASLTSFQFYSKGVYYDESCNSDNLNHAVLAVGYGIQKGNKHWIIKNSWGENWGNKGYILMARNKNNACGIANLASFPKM

| Structure (SMILES) | pIC50 |
| --- | --- |
| CC(C)=CCC/C(C)=C/Cc1c(CCC(=O)c2ccc(O)cc2O)ccc(O)c1O | 6.77 |
| CC(C)=CCCC1(C)C=Cc2c(cc(O)c3c2OC(c2ccc(O)cc2)CC3=O)O1 (stereo not drawn) [CYCLOALTILISIN 7] | 6.08 |
| CC(C)=CCC/C(C)=C/Cc1c(CCC(=O)c2ccc(O)cc2O)cc(-c2cc(O)c(O)c(C/C=C(\C)CCC=C(C)C)c2CCC(=O)c2ccc(O)cc2O)c(O)c1O [CYCLOALTILISIN 6] | 7.01 |
